Target: T1, PDE2 (Bos taurus, UniProt P14099)
T1 construct: PDE2 was prepared from bovine endothelial cells by the same methods; endogenous in cells; host or cells: bovine endothelial cells
T1 sequence (P14099 1-921): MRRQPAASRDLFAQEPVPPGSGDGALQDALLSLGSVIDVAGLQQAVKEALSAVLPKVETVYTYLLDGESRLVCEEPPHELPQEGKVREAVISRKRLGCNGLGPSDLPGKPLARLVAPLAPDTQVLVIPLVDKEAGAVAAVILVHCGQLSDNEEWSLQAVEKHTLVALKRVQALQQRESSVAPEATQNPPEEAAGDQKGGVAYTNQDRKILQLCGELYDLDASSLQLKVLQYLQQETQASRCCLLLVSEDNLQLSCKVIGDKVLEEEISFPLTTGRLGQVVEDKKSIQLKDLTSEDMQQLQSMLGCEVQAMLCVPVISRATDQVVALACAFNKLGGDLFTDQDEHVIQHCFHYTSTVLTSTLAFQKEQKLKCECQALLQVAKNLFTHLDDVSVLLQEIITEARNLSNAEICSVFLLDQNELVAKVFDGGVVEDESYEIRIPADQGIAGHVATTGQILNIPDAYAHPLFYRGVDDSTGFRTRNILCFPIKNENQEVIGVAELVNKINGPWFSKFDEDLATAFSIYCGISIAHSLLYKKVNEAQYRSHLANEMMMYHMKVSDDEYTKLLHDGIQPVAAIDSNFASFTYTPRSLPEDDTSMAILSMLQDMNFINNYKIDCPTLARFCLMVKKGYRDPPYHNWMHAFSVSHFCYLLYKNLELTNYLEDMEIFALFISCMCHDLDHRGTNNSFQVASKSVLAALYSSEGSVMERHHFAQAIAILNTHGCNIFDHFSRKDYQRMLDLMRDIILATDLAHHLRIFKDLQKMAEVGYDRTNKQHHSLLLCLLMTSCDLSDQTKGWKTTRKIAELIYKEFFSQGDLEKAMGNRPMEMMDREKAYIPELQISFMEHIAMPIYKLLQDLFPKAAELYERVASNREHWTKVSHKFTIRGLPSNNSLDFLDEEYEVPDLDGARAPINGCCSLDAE
Assay: Inhibition of PDE2, radioenzymatic phosphodiesterase assay
Assay type: biochemical, bovine
Conditions: not given

Row | Compound | IC50
1 | COc1cc2c(cc1OC)N(C)C(=O)CN=C2c1ccc2c(c1)OCO2 [Compound 17o, 7,8-dimethoxy-1-methyl-5-(3,4-methylenedioxyphenyl)-1,3-dihydro-2H-1,4-benzodiazepin-2-one] | 7.8 µM
2 | COc1cc2c(cc1OC)N(C)C(=O)CN=C2c1cccc(CCCCCC(N)=O)c1 [Compound 6i, 6-[3-(7,8-dimethoxy-1-methyl-2-oxo-2,3-dihydro-1H-1,4-benzodiazepin-5-yl)phenyl]hexanamide] | 5.6 µM
3 | COc1cc2c(cc1OC)N(C)C(=O)CN=C2c1cccc(CN)c1 [Compound 8a, 5-[3-(aminomethyl)phenyl]-7,8-dimethoxy-1-methyl-1,3-dihydro-2H-1,4-benzodiazepin-2-one] | 9 µM
4 | COc1ccc2c(c1)N(C)C(=O)CN=C2c1cccc(C(N)=O)c1 [Compound 5l, 3-(8-methoxy-1-methyl-2-oxo-2,3-dihydro-1H-1,4-benzodiazepin-5-yl)benzamide] | 14 µM
5 | COc1cccc2c1C(c1cccc(C#N)c1)=NCC(=O)N2 [Compound 28b, 3-(6-methoxy-2-oxo-2,3-dihydro-1H-1,4-benzodiazepin-5-yl)benzonitrile] | 88 µM
6 | COC(=O)c1cccc(C2=NCC(=O)N(C)c3cc(OC)c(OC)cc32)c1 [Compound 34a, 3-(7,8-dimethoxy-1-methyl-2-oxo-2,3-dihydro-1H-1,4-benzodiazepin-5-yl)methyl benzoate] | 2.6 µM
7 | COc1cc2c(cc1OC)N(Cc1ccccc1)C(=O)CN=C2c1cccc(C#N)c1 [Compound 4m, 3-(1-benzyl-7,8-dimethoxy-2-oxo-2,3-dihydro-1H-1,4-benzodiazepin-5-yl)benzonitrile] | 1.5 µM
8 | COc1cc2c(cc1OC)N(C)C(=O)CN=C2c1cccc(C#CCN2CCCCC2)c1 [Compound 6c, 7,8-dimethoxy-1-methyl-5-[3-(3-piperidin-1-ylprop-1-ynyl)phenyl]-1,3-dihydro-2H-1,4-benzodiazepin-2-one] | 4.3 µM
9 | COc1cc2c(cc1OC)N(C)C(=O)CN=C2c1cccc(C(C)=O)c1 [Compound 17e, 5-(3-acetylphenyl)-7,8-dimethoxy-1-methyl-1,3-dihydro-1,4-benzodiazepin-2-one] | 6.7 µM
10 | CCCCCCc1cccc(C2=NCC(=O)N(C)c3cc(OC)c(OC)cc32)c1 [Compound 6e, 7,8-dimethoxy-5-(3′-hexylphenyl)-1-N-methyl-1,3-dihydro-2H-1,4-benzodiazepin-2-one] | 0.36 µM
11 | COc1cc2c(cc1OC)N(C)C(=O)CN=C2c1cccc(C(=O)NCCCc2ccccc2)c1 [Compound 36f, 3-(7,8-dimethoxy-1-methyl-2-oxo-2,3-dihydro-1H-1,4-benzodiazepin-5-yl)-N-(3-phenylpropyl)benzamide] | 2.8 µM
12 | CCOC(=O)CN1C(=O)CN=C(c2cccc(C#N)c2)c2cc(OC)c(OC)cc21 [Compound 4n, Ethyl[5-(3-cyanophenyl)-7,8-dimethoxy-2-oxo-2,3-dihydro-1H-1,4-benzodiazepin-1-yl]acetate] | 3.7 µM

Same assay, conditions: 1 μM cyclic AMP; PDE2 from bovine endothelial cells; read-out: PDE2 IC50

Row | Compound | IC50
13 | tert-butyl-3-[5-(cyanophenyl)-(7,8-dimethoxy-1-methyl-2-oxo-2,3-dihydro-1H-1,4-benzodiazepin-6-yl)phenyl]prop-2-ynylcarbamate [Compound 25e] | 5 µM

Same assay, conditions: 10 μM test compound; PDE2 from bovine endothelial cells

Row | Compound | PDE2 percentage inhibition at 10 μM
14 | COc1cc2c(cc1OC)C(c1cccc(C(F)(F)F)c1)=NCC(=O)N2 [Compound 3d, 7,8-dimethoxy-[5-(3-trifluoromethyl)phenyl]-1,3-dihydro-2H-1,4-benzodiazepin-2-one] | 22%
15 | CNC1=Nc2cc(OC)c(OC)cc2C(c2cccc(C#N)c2)=NC1 [Compound 12a, 3-(7,8-dimethoxy-2-methylamino-1,3-dihydro-3H-1,4-benzodiazepin-5-yl)benzonitrile] | 16%

Same assay, conditions: 10 μM test compound; PDE2 from bovine endothelial cells; read-out: PDE2 percentage inhibition at 10 μM

Row | Compound | inhibition at 10 µM
16 | COc1cc2c(cc1OC)-n1ccnc1CN=C2c1cccc(C(N)=O)c1 [Compound 11b, 3-(8,9-dimethoxy-4H-imidazo[1,2-a] [1,4]benzodiazepin-6-yl)benzamide] | 69.3%
17 | COc1cc2c(cc1OC)N(C)C(=O)CN=C2c1cccc(C(=O)NC(C)C)c1 [Compound 36a, 3-(7,8-dimethoxy-1-methyl-2-oxo-2,3-dihydro-1H-1,4-benzodiazepin-5-yl)N-isopropylbenzamide] | 75.9%
18 | COc1cc2c(cc1OC)N(C)C(=O)CN=C2c1cccc(NC(C)=O)c1 [Compound 17n, N-[3-(7,8-dimethoxy-1-methyl-2-oxo-2,3-dihydro-1H-1,4-benzodiazepin-5-yl)phenyl]acetamide] | 38%

Same assay, conditions: read-out: PDE2 percentage inhibition at 10 μM

Row | Compound | inhibition at 10 µM
19 | COc1cc2c(c(Br)c1O)C(c1cccc(C#N)c1)=NCC(=O)N2 [Compound 23b, 3-(6-bromo-7-hydroxy-8-methoxy-2-oxo-2,3-dihydro-1H-1,4-benzodiazepin-5-yl)benzonitrile] | 20.1%
20 | COc1cc2c(cc1OC)N(C)C(=O)C(Cc1ccc(Cl)c(Cl)c1)N=C2c1cccc(C(N)=O)c1 (stereo not shown) [Compound 5k, 3-[3-(3,4-dichlorobenzyl)-7,8-dimethoxy-1-methyl-2-oxo-2,3-dihydro-1H-1,4-benzodiazepin-5-yl]benzamide] | 67.8%
21 | CCN1C(=O)CN=C(c2cccc(C#CCOCc3ccccc3)c2)c2cc(OC)c(OC)cc21 [Compound 6k, 5-{3-[3-(benzyloxy)prop-1-ynyl]phenyl}-1-ethyl-7,8-dimethoxy-1,3-dihydro-2H-1,4-benzodiazepin-2-one] | 69.7%
22 | COc1cccc2c1C(c1cccc(C#N)c1)=NCC(=O)N2 [Compound 28b, 3-(6-methoxy-2-oxo-2,3-dihydro-1H-1,4-benzodiazepin-5-yl)benzonitrile] | 34.5%
23 | COc1cc2c(cc1OC)N(C)C(=O)CN=C2c1cccc(C(=O)NCCCCCC(N)=O)c1 [Compound 36c, N-(6-amino-6-oxohexyl)-3-(7,8-dimethoxy-1-methyl-2-oxo-2,3-dihydro-1H-1,4-benzodiazepin-5-yl)benzamide] | 46%
24 | COc1cc2c(cc1O)C(c1cccc(C#N)c1)=NCC(=O)N2 [Compound 22b, 3-(7-hydroxy-8-methoxy-2-oxo-2,3-dihydro-1H-1,4-benzodiazepin-5-yl)benzonitrile] | 3.8%
25 | COc1cc2c(cc1OC)N(Cc1ccccc1)C(=O)CN=C2c1cccc(C(F)(F)F)c1 [Compound 4s, 1-benzyl-5-[3-(trifluoromethyl)phenyl]-7,8-dimethoxy-1,3-dihydro-1,4-benzodiazepin-2-one] | 14%
26 | COc1cc2c(cc1OC)N(Cc1cccc(C(F)(F)F)c1)C(=O)CN=C2c1cccc(C#N)c1 [Compound 4g, 3-{7,8-dimethoxy-2-oxo-1-[3-(trifluoromethyl)benzyl]-2,3-dihydro-1H-1,4-benzodiazepin-5-yl]-benzonitrile] | 14.3%
27 | COc1cc2c(cc1OC)N(Cc1ccccc1Cl)C(=O)CN=C2c1cccc(C#N)c1 [Compound 4h, 3-[1-(2-chlorobenzyl)-7,8-dimethoxy-2-oxo-2,3-dihydro-1H-1,4-benzodiazepin-5-yl]-benzonitrile] | 16%
28 | COc1cc2c(cc1OC)-n1ccnc1CN=C2c1cccc(C#N)c1 [Compound 11a, 3-(8,9-dimethoxy-4H-imidazo[1,2-a][1,4]benzodiazepin-6-yl)benzonitrile] | 43%
29 | COc1cc2c(c(-c3ccccc3)c1OC)C(c1cccc(C(N)=O)c1)=NCC(=O)N2C [Compound 5c, 3-(7,8-dimethoxy-1-methyl-2-oxo-6-phenyl-2,3-dihydro-1H-1,4-benzodiazepin-5-yl)benzamide] | 53.3%
30 | CCOC(=O)CN1C(=O)CN=C(c2cccc(C(N)=O)c2)c2cc(OC)c(OC)cc21 [Compound 5i, Ethyl{5-[3-(aminocarbonyl)phenyl]-7,8-dimethoxy-2-oxo-2,3-dihydro-1H-1,4-benzodiazepin-1-yl}acetate] | 0%
31 | COc1cc2c(cc1OC)C(c1cccc(C#N)c1)=NCC(=S)N2 [Compound 10d, 5-(3-cyanophenyl)-7,8-dimethoxy-1,3-dihydro-2H-1,4-benzodiazepin-2-thione] | 5.5%
32 | CCN1C(=O)CN=C(c2cccc(C#N)c2)c2cc(OC)c(OC)cc21 [Compound 4k, 3-(1-ethyl-7,8-dimethoxy-2-oxo-2,3-dihydro-1H-1,4-benzodiazepin-5-yl)benzonitrile] | 75.9%
33 | COc1cc2c(cc1OC)N(Cc1cccc(Cl)c1)C(=O)CN=C2c1cccc(C#N)c1 [Compound 4f, 3-[1-(3-chlorobenzyl)-7,8-dimethoxy-2-oxo-2,3-dihydro-1H-1,4-benzodiazepin-5-yl]-benzonitrile] | 17.1%
34 | COc1ccc2c(c1)C(c1ccccc1)=NCC(=O)N2 [Compound 28e, 7-methoxy-5-phenyl-1,3-dihydro-2H-1,4-benzodiazepin-2-one] | 8.8%

Source: patent publication US20060128695A1, “Cyclic nucleotide phosphodiesterase inhibitors, preparation and uses” (NEURO3D, priority 2002, published 2006)
